Reference: patent EP1304119A2, “Method for preventing and treating hearing loss using a neurturin protein product” (Amgen Inc., priority 1997, dated 1999)

Key:
cochlear hair cells [1] = test: Organ of Corti (cochlea) explant culture, hair cell survival after cisplatin exposure (FITC-phalloidin count); type: cell-based, rat; settings: cisplatin treatment alone
Excerpt: Triton X-100 (t-Octylphenoxypoly-ethoxyethanol. Cat. #X-100, Sigma. St. Louis, MO) • 4. Phalloidin (FITC Labeled. Cat. #P-5282, Sigma. St. Louis, MO) • 5. Vectashield (Mounting Medium, Cat. #H-1000, Vector, Burlingame, CA)
Organ of Corti explants were obtained from P3-P4 Wistar rats. Rats were decapitated, the lower jaw was cut out and skin removed. The temporal bone was collected in dissection solution, the otic capsule exposed and the bony-cartilaginous cochlear capsule was carefully separated from the temporal bone. Freed cochlea were transferred to another Petri dish with dissection solution for further dissection. […] The organ of Corti was then transferred to a 35-mm diameter Petri dish containing cold PBS supplemented with glucose and ready to be cultured. […]
For each experimental point, 2 to 4 cochlea were used. In each cochlea, the number of hair cells was counted in 2-3 section, 175 mm in length each. Only the sections in the middle turn of the cochlea were analyzed. […]

cochlear hair cells [2] = test: In vivo hair cell loss after cisplatin, neurturin infused into the inner ear by mini-pump; design: species or system guinea pigs; settings: cisplatin 7.5 mg/kg twice
Experimental: The following example describes the inner ear administration of neurturin protein product to protect cochlear hair cells against ototoxicity in an animal model. The neurturin protein product is introduced into the inner ear via a cannula pushed into the scala tympani through a hole drilled in the basal turn of the cochlea. The cannula is connected to an Alzet mini-pump loaded with neurturin protein product (50 ng/ml) at a releasing rate of 0.5 µl/hour for 14 days. […] The experiment is terminated after 27 days. The hair cells are stained with FITC-phalloidin, and their number is determined in the middle turn of the cochlea (in at least 20% of the middle turn part). The results are expressed as the percent of hair cells lost for each individual guinea pig for the neurturin protein product treated ear (right ear) and the untreated ear (left ear).
The loading of a pump with methylene dye is done by holding the pump in a vertical position. A dye-loaded syringe is inserted completely into the pump, and the dye is injected until the pump overflowed. Injection of any air bubbles into the pump is avoided. A short piece of sterile V/4 tubing is placed onto the Flow Moderator. Neurturin protein product is loaded at a concentration of 50 ng/ml in PBS + 0.1% BSA, in a total volume of 230 µl, to within about 10 mm of the cannula tip, using a syringe connected with V/4 tubing. […]

cochlear hair cells [3] = test: Organ of Corti (cochlea) explant culture, hair cell survival after neomycin exposure (FITC-phalloidin count); type: cell-based, rat; settings: for Hair cell survival (% of untreated): Neomycin alone (0.6 mM), added 24 hours after plating, 3 days exposure, mean ± SD, 4320 min, 600 µM
Excerpt: • 1. Neomycin solution (Cat. #N1142, Sigma. St. […] Cat. #X-100, Sigma. St. Louis, MO) • 4. Phalloidin (FITC Labeled. Cat. #P-5282, Sigma. St. Louis, MO) • 5. Vectashield (Mounting Medium, Cat. #H-1000, Vector, Burlingame, CA)
Organ of Corti explants were obtained from P3-P4 Wistar rats. Rats were decapitated, the lower jaw was cut out and skin removed. The temporal bone was collected in dissection solution, the otic capsule exposed and the bony-cartilaginous cochlear capsule was carefully separated from the temporal bone. Freed cochlea were transferred to another Petri dish with dissection solution for further dissection. Intact organs of Corti were obtained by using a fine forceps to hold central VIII nerve tissue and remove it out, then the stria vascular membrane was carefully stripped off, starting from the apex or base. The organ of Corti was then transferred to a 35-mm diameter Petri dish containing cold PBS supplemented with glucose and ready to be cultured.
Cochlea explants were cultured in uncoated 96 well microplates. A single organ of Corti was placed in a well and was kept floating in the medium.
Explants were kept in normal medium for 24 hours (90 µl/well). Neurturin protein solution (10 µl) was added to the 'treated' cultures, and 10 µl of medium were added to controls. After 24 hours of incubation, the media were changed and the explants were exposed to ototoxin-containing medium (90 µl), with neurturin protein solution (10µl) or without (control). The cultures were incubated for an additional 3 days. […]
To identify and count hair cells in the organ of Corti, a direct immunostaining method was used to label the actin present naturally in the stereocilia bundles of the hair cells. […] The explants were . observed under a Nikon Diaphot-300 inverted fluorescence microscope, using FITC filters and fluorescence optics.
For each experimental point, 2 to 4 cochlea were used. In each cochlea, the number of hair cells was counted in 2-3 section, […] in length each. Only the sections in the middle turn of the cochlea were analyzed. […]

Compound	morphology of the organs of Corti (four-row structure) (cochlear hair cells [1])	loss of hair cells in the left ear (untreated ear) (cochlear hair cells [2])	Hair cell survival (% of untreated) (cochlear hair cells [3]) [n=23%]	Hair cell survival (% of untreated) (cochlear hair cells [3]; listed as neomycin) [%]	morphology of the organs of Corti (four-row structure) (cochlear hair cells [3]; neomycin treatment alone, spared hair cells)
N.N.[Cl][Pt][Cl] [Cisplatin]	caused a marked disruption of the four-row-structure	approximately 40%	–	–	–
Neomycin	–	–	5.9 ± 4.7	6	still organized in the typical four row structure
